From patent publication US20110306573A1, “NUCLEOSIDE DERIVATIVES AS INHIBITORS OF VIRAL POLYMERASES” (priority 2008, published 2011)

The compounds below were run against T1, HCV NS5B polymerase (Hepatitis C virus genotype 1b, UniProt P26663) (assay: Assay for inhibition of HCV NS5B polymerase (RdRp, 3H-UTP incorporation on heteromeric RNA template)). Conditions: heterogeneous template dCoh, 2 nM DC55-lb.BK or 10 nM DC55-2b.2, NTPs 1 uM, room temperature 2 hours.
T1 construct: RNA-dependent RNA polymerase (NS5B) of the hepatitis C virus (HCV)
T1 sequence (P26663 2420-2955): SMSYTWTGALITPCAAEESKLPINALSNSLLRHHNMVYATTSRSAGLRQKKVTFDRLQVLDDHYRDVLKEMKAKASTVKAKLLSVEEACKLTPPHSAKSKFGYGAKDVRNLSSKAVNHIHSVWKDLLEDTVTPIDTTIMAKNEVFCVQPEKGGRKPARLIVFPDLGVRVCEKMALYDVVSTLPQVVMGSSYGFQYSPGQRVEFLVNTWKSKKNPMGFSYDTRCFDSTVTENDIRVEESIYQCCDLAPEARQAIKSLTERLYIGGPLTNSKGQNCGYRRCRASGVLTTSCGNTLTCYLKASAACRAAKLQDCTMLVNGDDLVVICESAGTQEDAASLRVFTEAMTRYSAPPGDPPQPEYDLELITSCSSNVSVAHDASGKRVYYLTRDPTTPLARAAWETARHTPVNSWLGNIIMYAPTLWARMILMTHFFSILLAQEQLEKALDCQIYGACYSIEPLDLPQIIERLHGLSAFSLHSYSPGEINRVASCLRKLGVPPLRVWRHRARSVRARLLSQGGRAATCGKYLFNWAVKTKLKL
Format: biochemical
Protocol: The effectiveness of the compounds of the present invention as inhibitors of HCV NS5B RNA-dependent RNA polymerase (RdRp) was measured in the following assay.
This assay was used to measure the ability of the nucleoside derivatives of the present invention to inhibit the enzymatic activity of the RNA-dependent RNA polymerase (NS5B) of the hepatitis C virus (HCV) on a heteromeric RNA template.
Assay Buffer Conditions: (52.5 μL-total/reaction)
20 nM heterogeneous template dCoh
2.5 μl/reaction inhibitor compound in H2O
The compounds were tested at various concentrations up to 100 μM final concentration. Nucleoside derivatives were pipetted into wells of a 96-well plate. The enzyme diluted in the reaction buffer was pipetted into the wells and incubated at room temperature for 10 minutes; then the template dCoh was added and incubated for 10 minutes at room temperature. The reaction was initiated by addition of a mixture of nucleotide triphosphates (NTP's), including the radiolabeled UTP, and allowed to proceed at room temperature for 2 hours. Blank samples were done omitting the dCoh template. The reaction was quenched by addition of 50 ul TCA 20% (trichloroacetic acid)/NaPPi 20 mM and the plates were put in ice for 5 minutes. Then, the mixtures were filtered onto Unifilter GF/B 96-well plates (PerkinElmer), washed with TCA 2.5%. 50 ul/well of scintillator solution (Microscint 20, PerkinElmer) were added and the plates were counted in a scintillator counter.
The percentage of inhibition was calculated according to the following equation:
% Inhibition=[1−(cpm in test reaction−cpm in blank)/(cpm in control reaction−cpm in blank)]×100.

C[C@@]1(O)[C@H](O)[C@@H](COP(=O)(O)OP(=O)(O)OP(=O)(O)O)O[C@H]1n1cc(-c2cc[nH]n2)c2c(N)ncnc21 [Compound 14, 7-(2-C-methyl-5-triphospho-β-D-ribofuranosyl)-5-(1H-pyrazol-5-yl)-7H-pyrrolo[2,3-d]pyrimidin-4-amine] and C[C@@]1(F)[C@H](O)[C@@H](COP(=O)(O)OP(=O)(O)OP(=O)(O)O)O[C@H]1n1cc(-c2ncco2)c2c(N)ncnc21 [Compound 19, 7-(2-deoxy-2-fluoro-2-methyl-5-triphospho-β-D-ribofuranosyl)-5-(1,3-oxazol-2-yl)-7H-pyrrolo[2,3-d]pyrimidin-4-amine] cannot be ordered by IC50: less than 1000 nM for the first, less than 1000 nM for the second.

C[C@@]1(O)[C@H](O)[C@@H](COP(=O)(O)OP(=O)(O)OP(=O)(O)O)O[C@H]1n1cc(-c2ncco2)c2c(N)ncnc21 [Compound 11, 7-(2-C-methyl-5-triphospho-β-D-ribofuranosyl)-5-(1,3-oxazol-2-yl)-7H-pyrrolo[2,3-d]pyrimidin-4-amine] and C[C@@]1(O)[C@H](O)[C@@H](COP(=O)(O)OP(=O)(O)OP(=O)(O)O)O[C@H]1n1cc(-c2ncccn2)c2c(N)ncnc21 [Compound 12, 7-(2-C-methyl-5-triphospho-β-D-ribofuranosyl)-5-pyrimidin-2-yl-7H-pyrrolo[2,3-d]pyrimidin-4-amine] cannot be ordered by IC50: less than 1000 nM for the first, less than 50000 nM for the second.

“7-(2-C-methyl-5-triphospho-β-D-ribofuranosyl)-5-(1-methyl-1H-tetrazol-5-yl)-7H-pyrrolo[2,3-d]pyrimidin-4-amine and 7-(2-C-methyl-5-triphospho-β-D-ribofuranosyl)-5-(2-methyl-2H-tetrazol-5-yl)-7H-pyrrolo[2,3-d]pyrimidin-4-amine [Compound 10]” and C[C@@]1(F)[C@H](O)[C@@H](COP(=O)(O)OP(=O)(O)OP(=O)(O)O)O[C@H]1n1cc(-c2ccn[nH]2)c2c(N)ncnc21 [Compound 20, 7-(2-deoxy-2-fluoro-2-methyl-5-triphospho-β-D-ribofuranosyl)-5-(1H-pyrazol-5-yl)-7H-pyrrolo[2,3-d]pyrimidin-4-amine] cannot be ordered by IC50: less than 50000 nM for the first, less than 1000 nM for the second.

For COc1nc(-c2cn([C@@H]3O[C@H](COP(=O)(O)OP(=O)(O)OP(=O)(O)O)[C@@H](O)[C@@]3(C)O)c3ncnc(N)c23)cs1 [Compound 13, 5-(2-methoxy-1,3-thiazol-4-yl)-7-(2-C-methyl-5-triphospho-β-D-ribofuranosyl)-7H-pyrrolo[2,3-d]pyrimidin-4-amine], the IC50 was less than 50000 nM.
